These results are taken from patent US9309222B2, “Phenyl linked quinolinyl modulators of RORγt” (Janssen Pharmaceutica NV, priority 2012, dated 2016).

Assay [1] addresses T1, human RORγt ligand binding domain (RORγt LBD) (Homo sapiens, UniProt P51449).
T1 construct: His-tag (N); TurboTEV protease cleavage site (ENLYFQG) (N); made in house; host or cells: E. coli (pHIS1, modified pET vector)
T1 sequence (P51449 with tags, fused parts or gaps): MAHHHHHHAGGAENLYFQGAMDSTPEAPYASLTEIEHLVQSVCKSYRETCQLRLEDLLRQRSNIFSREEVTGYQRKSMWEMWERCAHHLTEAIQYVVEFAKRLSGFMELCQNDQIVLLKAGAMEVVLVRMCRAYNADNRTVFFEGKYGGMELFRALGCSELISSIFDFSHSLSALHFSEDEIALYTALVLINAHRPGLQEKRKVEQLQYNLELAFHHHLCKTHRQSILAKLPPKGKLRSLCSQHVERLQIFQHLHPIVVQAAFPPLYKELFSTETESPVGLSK
In words: RORγt ThermoFluor assay (thermal shift, ligand binding affinity). Conditions: estimated from concentration response of thermal shift. Here is the method: This approach is applicable to a wide variety of systems, and rigorous in theoretical interpretation through quantitation of equilibrium binding constants (KD).
The shift in the melting point described as a ΔTm is proportional to the concentration and affinity of the ligand.
RORγt ThermoFluor® Assay Construct
Protein and compound solutions are dispensed into black 384-well polypropylene PCR microplates (Abgene) and overlayed with silicone oil (1 μL Fluka, type DC 200) to prevent evaporation.
Fluorescence was measured by continuous illumination with UV light (Hamamatsu LC6) supplied via fiber optic and filtered through a band-pass filter (380-400 nm; >6 OD cutoff). Fluorescence emission of the entire 384-well plate was detected by measuring light intensity using a CCD camera (Sensys, Roper Scientific) filtered to detect 500±25 nm, resulting in simultaneous and independent readings of all 384 wells. Images were collected at each temperature, and the sum of the pixel intensity in a given area of the assay plate was recorded versus temperature. Reference wells contained RORγt without compounds, and the assay conditions were as follows: • 0.065 mg/mL RORγt • 60 μM 1,8-ANS • 100 mM Hepes, pH 7.0 • 10 mM NaCl • 2.5 mM GSH • 0.002% Tween-20
Project compounds were arranged in a pre-dosed mother plate (Greiner Bio-one) wherein compounds are serially diluted in 100% DMSO by 1:2 from a high concentration of 10 mM over 12 columns within a series (column 12 is a reference well containing DMSO, no compound).
The compounds were robotically dispensed directly into assay plates (1×=[…]) using a Hummingbird capillary liquid handling instrument (Digilab). Following compound dispense, protein and dye in buffer was added to achieve the final assay volume of 3 μL, followed by 1 μL of silicone oil.

In a further assay the target is T2, human RORγt LBD (Homo sapiens, UniProt P51449).
T2 construct: expressed in transfected cells
T2 sequence (P51449 258-518): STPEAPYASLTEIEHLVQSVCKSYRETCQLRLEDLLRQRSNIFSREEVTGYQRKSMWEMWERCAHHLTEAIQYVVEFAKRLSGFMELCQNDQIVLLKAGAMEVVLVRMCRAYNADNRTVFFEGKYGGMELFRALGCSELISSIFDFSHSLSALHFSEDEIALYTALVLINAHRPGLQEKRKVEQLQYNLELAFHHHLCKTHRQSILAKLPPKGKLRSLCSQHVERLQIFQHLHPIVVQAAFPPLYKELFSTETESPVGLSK
In words: RORγt reporter assay (GAL4-RORγt LBD luciferase in HEK293T cells). It counts as cell-based. The following applies: for IC50: 24 hours compound treatment; for inhibition at 6 µM: HEK-293T, read-out: RORγt reporter Assay, % inhibition @ 6 μM, HEK293T cells, 6 μM compound. The source says:
A reporter assay was used to test functional activity of RORγt modulatory compounds on transcriptional activation driven by the RORγt LBD. Cells used in the assay were co-transfected with two constructs. The first construct, pBIND-RORγt LBD, contained the wild type human RORγt LBD fused to the DNA binding domain of the GAL4 protein. The second construct, pGL4.31 (Promega Cat no. C935A), contained multiple GAL4 responsive DNA elements upstream of firefly luciferase. […] The mutant construct was called pBIND-RORγt-AF2.
The pBIND vector contains the GAL4 DNA Binding Domain (GAL4 DBD) and the renilla luciferase gene under control of the SV40 promoter. Renilla luciferase expression serves as a control for transfection efficiency and cell viability.
The reporter assay was performed by transiently transfecting HEK293T cells with 5 ng of pBIND-RORγt LBD or pBIND-RORγt LBD-AF2 and 5 μg pGL4.31 (Promega Cat no. C935A) using Fugene 6 (Invitrogen Cat no. E2691) at a 1:6 ratio of DNA:Fugene 6 in a T-75 flask in which cells were at least 80% confluent. Twenty four hours after bulk transfection, cells were plated into 96-well plates at 50,000 cells/well in phenol-red free DMEM containing 5% Lipid Reduced FCS and Pen/Strep. Six hours after plating, cells were treated with compounds for 24 hours. Media was removed and cells were lysed with 50 μL 1× Glo Lysis Buffer (Promega). Dual Glo Luciferase Reagent (50 μL/well) was then added and firefly luciferase luminescence was read on an Envision after a ten minute incubation. Finally, Stop and Glo reagent (50 μL/well) was added and renilla luciferase luminescence was read on an Envision after a ten minute incubation. To calculate the effect of compounds on RORγt activity, the ratio of firefly to renilla luciferase was determined and plotted against compound concentration. Agonist compounds increase RORγt-driven luciferase expression, and antagonist or inverse agonist compounds decrease luciferase expression.
(In general: In a reporter assay the amount or activity of a reporter protein is the signal.)

Structures can show the parent of a compound that is named as a salt.

In the case of `CN(C)c1nc2ccc(C(O)(c3cccnc3)c3ccccn3)cc2c(Cl)c1-c1ccccc1` (stereo not drawn) [Example 43, [4-Chloro-2-(dimethylamino)-3-phenylquinolin-6-yl](pyridin-2-yl)pyridin-3-ylmethanol•TFA], the Kd in assay [1] was 1.6 µM. On human RORγt LBD (HEK293T cells), this compound gave an IC50 of 1.1 µM. Moreover, the inhibition at 6 µM at human RORγt LBD came to 99%.
As to `COC(c1ccc2nc(Cl)c(-c3ccccc3)c(Cl)c2c1)(c1cnccn1)c1cncn1C` (stereo not drawn) [Example 127, 2,4-Dichloro-6-(methoxy(1-methyl-1H-imidazol-5-yl)(pyrazin-2-yl)methyl)-3-phenylquinoline•TFA], the Kd in assay [1] is 0.99 µM. Moreover, the IC50 against human RORγt LBD (HEK293T cells) stood at 1.6 µM. The inhibition at 6 µM at human RORγt LBD was 88%.
Regarding `COc1nc2ccc(C(O)(c3ccc(Cl)cc3)c3cncn3C)cc2cc1-c1ccccc1` (stereo not drawn) [Example 9], the Kd in assay [1] is 7.1 µM. In addition, at human RORγt LBD (HEK293T cells), the IC50 is 6.1 µM. Also, on human RORγt LBD, the inhibition at 6 µM was found to be 70%.
Consider `Cc1ccc(C(O)(c2cc(C)c3nc(Cl)c(-c4ccccc4)c(Cl)c3c2)c2cncn2C)cn1` (stereo not drawn) [Example 156, (2,4-Dichloro-8-methyl-3-phenylquinolin-6-yl)(1-methyl-1H-imidazol-5-yl)(6-methylpyridin-3-yl)methanol•TFA], for which the Kd in assay [1] is 0.057 µM. At human RORγt LBD (HEK293T cells), this compound had an IC50 of 0.32 µM. The inhibition at 6 µM on human RORγt LBD was found to be 98%.
For `COc1nc2ccc(C(O)(c3cccnc3)c3cccc(Cl)c3)cc2c(OC)c1-c1ccccc1` (stereo not drawn) [Example 79, (3-Chlorophenyl)(2,4-dimethoxy-3-phenylquinolin-6-yl)pyridin-3-ylmethanol•TFA], in assay [1], the Kd was 0.51 µM. Further, at human RORγt LBD (HEK293T cells), the IC50 is 1.2 µM. Also, at human RORγt LBD, the inhibition at 6 µM was 73%.
Consider `CN(C)c1c(-c2ccccc2)c(Cl)nc2ccc(C(O)(c3ccc(Cl)cc3)c3cccnc3)cc12` (stereo not drawn) [Example 33, [2-Chloro-4-(dimethylamino)-3-phenylquinolin-6-yl](4-chlorophenyl)pyridin-3-ylmethanol•TFA], for which the Kd in assay [1] is 3.3 µM. Further, at human RORγt LBD (HEK293T cells), the IC50 was found to be 2 µM. In addition, the inhibition at 6 µM on human RORγt LBD was determined as 78%.
Turning to `CCN(CC)c1c(-c2ccccc2)c(Cl)nc2ccc(C(O)(c3cccnc3)c3cccc(Cl)c3)cc12` (stereo not drawn) [Example 101, [2-Chloro-4-(diethylamino)-3-phenylquinolin-6-yl](3-chlorophenyl)pyridin-3-ylmethanol•TFA], the Kd in assay [1] is 2.5 µM. Also, the IC50 against human RORγt LBD (HEK293T cells) was 0.64 µM. The inhibition at 6 µM at human RORγt LBD worked out at 94%.
Take `Cn1cncc1C(O)(c1ccc(C(F)(F)F)nc1)c1ccc2nc(C(F)(F)F)c(-c3ccccc3)c(Cl)c2c1` (stereo not drawn) [Example 172, (4-Chloro-3-phenyl-2-(trifluoromethyl)quinolin-6-yl)(1-methyl-1H-imidazol-5-yl)(6-(trifluoromethyl)pyridin-3-yl)methanol•TFA]: in assay [1], the Kd is 0.0046 µM. In addition, on human RORγt LBD (HEK293T cells), half-maximal inhibition (IC50) required 0.14 µM. Also, the inhibition at 6 µM at human RORγt LBD was determined as 96%.
As to `Cn1cncc1C(O)(c1ccncc1)c1cc(F)c2nc(Cl)c(-c3ccccc3)c(Cl)c2c1` (stereo not drawn) [Example 155, (2,4-Dichloro-8-fluoro-3-phenylquinolin-6-yl)(1-methyl-1H-imidazol-5-yl)(pyridin-4-yl)methanol•TFA], the Kd in assay [1] was 0.068 µM. Further, the midpoint of inhibition against human RORγt LBD (HEK293T cells), the IC50, lay at 0.11 µM. Besides, the inhibition at 6 µM at human RORγt LBD was 96%.
On to `COc1nc2c(C)cc(C(O)(c3ccc(F)cc3)c3cncn3C)cc2c(Cl)c1-c1cccc(F)c1` (single isomer, unassigned) [Example 178b, (4-Chloro-3-(3-fluorophenyl)-2-methoxy-8-methylquinolin-6-yl)(4-fluorophenyl)(1-methyl-1H-imidazol-5-yl)methanol], for which the dissociation constant (Kd) in assay [1] was 21 µM. Moreover, the “RORγt reporter Assay, % inhibition @ 6 μM” value at human RORγt LBD (HEK293T cells, 6 μM compound, 6 µM) came out at 72%. In addition, the 50% inhibitory concentration (IC50) at human RORγt LBD (HEK293T cells) was 0.61 µM.
For the compound `Cn1cncc1C(O)(c1cccnc1)c1ccc2ncc(-c3ccccc3)c(Cl)c2c1` (stereo not drawn) [Example 51, (4-Chloro-3-phenylquinolin-6-yl)(1-methyl-1H-imidazol-5-yl)pyridin-3-ylmethanol•TFA], in assay [1], the Kd was 1.8 µM. Further, the IC50 against human RORγt LBD (HEK293T cells) is around 4 µM. Besides, at human RORγt LBD, the inhibition at 6 µM came out at 75%.
On the same counts, the results for `CN(C)c1c(-c2ccccc2)c(Cl)nc2ccc(C(O)(c3cccnc3)c3cccc(Cl)c3)cc12` (stereo not drawn) [Example 42, [2-Chloro-4-(dimethylamino)-3-phenylquinolin-6-yl](3-chlorophenyl)pyridin-3-ylmethanol•TFA] are 1.4 µM, around 2 µM and 91%.
As to `Cn1cncc1C(O)(c1ccc(Cl)cc1)c1ccc2nc(Cl)c(-c3ccccc3)c(Cl)c2c1F` (stereo not drawn) [Example 163, (4-Chlorophenyl)(2,4-dichloro-5-fluoro-3-phenylquinolin-6-yl)(1-methyl-1H-imidazol-5-yl)methanol•TFA], the Kd in assay [1] is 1.2 µM. Moreover, at human RORγt LBD (HEK293T cells), the IC50 turned out to be 1.4 µM. At human RORγt LBD, the inhibition at 6 µM turned out to be 87%.
As to `CN(C)c1ccc(C(O)(c2ccc3nc(Cl)c(-c4ccccc4)c(Cl)c3c2)c2cncn2C)cn1` (stereo not drawn) [Example 11, (2,4-Dichloro-3-phenylquinolin-6-yl)[6-(dimethylamino)pyridin-3-yl](1-methyl-1H-imidazol-5-yl)methanol•TFA], the Kd in assay [1] is 1.1 µM. This compound yielded an IC50 against human RORγt LBD (HEK293T cells) of 4.2 µM. In addition, on human RORγt LBD, the inhibition at 6 µM stood at 75%.
For `CN(C)c1c(-c2ccccc2)c(Cl)nc2ccc(C(O)(c3cccnc3)c3ccccc3Cl)cc12` (stereo not drawn) [Example 45, [2-Chloro-4-(dimethylamino)-3-phenylquinolin-6-yl](2-chlorophenyl)pyridin-3-ylmethanol•TFA], the Kd in assay [1] is 2.9 µM. For the same compound, on human RORγt LBD (HEK293T cells), it took 1.6 µM to reach half-maximal inhibition (IC50). The inhibition at 6 µM on human RORγt LBD was found to be 75%.
Taken in the same sequence, the figures for `Cn1ccnc1C(O)(c1ccnnc1)c1ccc2nc(Cl)c(-c3ccccc3)c(Cl)c2c1` (stereo not drawn) [Example 121, (2,4-Dichloro-3-phenylquinolin-6-yl)(1-methyl-1H-imidazol-2-yl)(pyridazin-4-yl)methanol] were 1.7 µM, around 2 µM and 72%.
`COC1CCN(c2nc3ccc(C(O)(c4ccncc4)c4cncn4C)cc3c(Cl)c2-c2ccccc2)CC1` (stereo not drawn) [Example 75, [4-Chloro-2-(4-methoxypiperidin-1-yl)-3-phenylquinolin-6-yl](1-methyl-1H-imidazol-5-yl)pyridin-4-ylmethanol•TFA]: the Kd in assay [1] is 0.42 µM. This compound also returned an IC50 at human RORγt LBD (HEK293T cells) of around 2 µM. At human RORγt LBD, the inhibition at 6 µM is 88%.

One may read the Kd as the constant that tells how readily two partners part at equilibrium. In general, IC50 refers to the midpoint of a concentration-inhibition curve. Low readings indicate greater potency, high ones weaker potency. A word on the inhibition: it is the change of the read-out against control, counted positive when it falls.
